Results reported in US9938276B2, “6,5-bicyclic octahydropyrrolopyridine orexin receptor antagonists” (Merck Sharp & Dohme Corp., priority 2014, dated 2018).
pIC50: −log10 of the molar value.

What was measured:
hOX1R = hOX1R (Homo sapiens, UniProt O43613); assay: hOX1R FLIPR Ca2+ flux assay; assay type: cell-based; conditions: CHO cells expressing the receptor; agonist 70 pM Ala-6,12 human orexin-A
human orexin-2 receptor = human orexin-2 receptor (Homo sapiens (Human), UniProt O43614); assay: hOX2R FLIPR Ca2+ flux assay; assay type: cell-based; conditions: CHO cells expressing the receptor; agonist 70 pM Ala-6,12 human orexin-A
Description: In a typical experiment the OX1 and OX2 receptor antagonistic activity of the compounds of the present invention was determined in accordance with the following experimental method. For intracellular calcium measurements, Chinese hamster ovary (CHO) cells expressing the rat orexin-1 receptor or the human orexin-2 receptor, are grown in Iscove's modified DMEM containing 2 mM L-glutamine, […], 1% hypoxanthine-thymidine supplement, 100 U/ml penicillin, 100 μg/ml streptomycin and 10% heat-inactivated fetal calf serum (FCS). The cells are seeded at 20,000 cells/well into Becton-Dickinson black 384-well clear bottom sterile plates coated with poly-D-lysine. All reagents were from GIBCO-Invitrogen Corp. The seeded plates are incubated overnight at 37° C. and 5% CO2. Ala-6,12 human orexin-A as the agonist is prepared as a 1 mM stock solution in 1% bovine serum albumin (BSA) and diluted in assay buffer (HBSS containing 20 mM HEPES, 0.1% BSA and 2.5 mM probenecid, pH7.4) for use in the assay at a final concentration of 70 pM. Test compounds are prepared as 10 mM stock solution in DMSO, then diluted in 384-well plates, first in DMSO, then assay buffer. On the day of the assay, cells are washed 3 times with 100 μl assay buffer and then incubated for 60 min (37° C., 5% CO2) in 60 μl assay buffer containing 1 μM Fluo-4AM ester, 0.02% pluronic acid, and 1% BSA. The dye loading solution is then aspirated and cells are washed 3 times with 100 μl assay buffer. 30 μl of that same buffer is left in each well. Within the Fluorescent Imaging Plate Reader (FLIPR, Molecular Devices), test compounds are added to the plate in a volume of 25 μl, incubated for 5 min and finally 25 μl of agonist is added. Fluorescence is measured for each well at 1 second intervals for 5 minutes and the height of each fluorescence peak is compared to the height of the fluorescence peak induced by 70 pM Ala-6,12 orexin-A with buffer in place of antagonist. […] Alternatively, compound potency can be assessed by a radioligand binding assay (described in Bergman et. al. Bioorg. Med. Chem. Lett. 2008, 18, 1425-1430) in which the inhibition constant (Ki) is determined in membranes prepared from CHO cells expressing either the OX1 or OX2 receptor. The intrinsic orexin receptor antagonist activity of a compound which may be used in the present invention may be determined by these assays.

human orexin-2 receptor, sequence (O43614 whole entry): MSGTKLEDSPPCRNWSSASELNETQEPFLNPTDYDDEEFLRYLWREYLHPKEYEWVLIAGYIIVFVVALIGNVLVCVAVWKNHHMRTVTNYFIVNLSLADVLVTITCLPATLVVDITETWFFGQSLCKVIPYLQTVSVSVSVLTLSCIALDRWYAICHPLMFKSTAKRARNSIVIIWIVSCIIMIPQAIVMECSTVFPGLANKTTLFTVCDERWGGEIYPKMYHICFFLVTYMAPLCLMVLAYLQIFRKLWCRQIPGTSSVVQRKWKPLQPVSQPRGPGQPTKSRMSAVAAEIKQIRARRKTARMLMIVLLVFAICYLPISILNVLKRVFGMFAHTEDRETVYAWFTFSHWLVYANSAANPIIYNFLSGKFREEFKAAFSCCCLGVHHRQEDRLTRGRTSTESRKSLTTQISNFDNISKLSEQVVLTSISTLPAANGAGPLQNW

| Structure (SMILES) | pIC50 (hOX1R) | pIC50 (human orexin-2 receptor) |
| --- | --- | --- |
| COC(=O)c1nc(N2CC[C@H]3CCN(C(=O)c4ccccc4-n4nccn4)C[C@H]32)sc1C (stereo in doubt) [Example B12, methyl 2-((3aR, 7aS)-6-(2-(2H-1,2,3-triazol-2-yl)benzoyl)octahydro-1H-pyrrolo[2,3-c]pyridin-1-yl)-5-methylthiazole-4-carboxylate] | 5.00 | 5.87 |
| N#Cc1ccnc(N2CC[C@H]3CCN(C(=O)c4ccccc4-n4ncnn4)C[C@H]32)c1 (stereo in doubt) [Example D2, 2-((3aS, 7aS)-6-(2-(2H-tetrazol-2-yl)benzoyl)octahydro-1H-pyrrolo[2,3-c]pyridin-1-yl)isonicotinonitrile] | 5.00 | 6.96 |
| N#Cc1ccnc(N2CC[C@H]3CCN(C(=O)c4ccccc4OC(F)(F)F)C[C@H]32)c1 (stereo in doubt) [Example D3, 2-((3aS, 7aS)-6-(2-(trifluoromethoxy)benzoyl)octahydro-1H-pyrrolo[2,3-c]pyridin-1-yl)isonicotinonitrile] | 5.00 | 7.10 |
| N#Cc1ccnc(N2CC[C@H]3CCN(C(=O)c4nccnc4-c4ccccn4)C[C@H]32)c1 (stereo in doubt) [Example D4, 2-((3aS, 7aS)-6-(3-(pyridin-2-yl)pyrazine-2-carbonyl)octahydro-1H-pyrrolo[2,3-c]pyridin-1-yl)isonicotinonitrile] | ≤ 5.00 | 6.48 |
| N#Cc1ccnc(N2CC[C@H]3CCN(C(=O)c4cccnc4-n4cccn4)C[C@H]32)c1 (stereo in doubt) [Example D5, 2-((3aS, 7aS)-6-(2-(1H-pyrazol-1-yl)nicotinoyl)octahydro-1H-pyrrolo[2,3-c]pyridin-1-yl)isonicotinonitrile] | 5.00 | 7.43 |
| N#Cc1ccnc(N2CC[C@H]3CCN(C(=O)c4nccnc4-n4cccn4)C[C@H]32)c1 (stereo in doubt) [Example D6, 2-((3aS, 7aS)-6-(3-(1H-pyrazol-1-yl)pyrazine-2-carbonyl)octahydro-1H-pyrrolo[2,3-c]pyridin-1-yl)isonicotinonitrile] | 5.00 | 6.93 |
| N#Cc1ccnc(N2CC[C@H]3CCN(C(=O)c4ccccc4-n4nccn4)C[C@H]32)c1 [Example A1, 2-((3aS,7aS)-6-(2-(2H-1,2,3-triazol-2-yl)benzoyl)octahydro-1H-pyrrolo[2,3-c]pyridin-1-yl)isonicotinonitrile] | 5.00 | 7.39 |
| Cc1cc(C)nc(N2CC[C@@H]3CCN(C(=O)c4ccccc4-n4nccn4)C[C@@H]32)n1 [Example A2, (2-(2H-1,2,3-triazol-2-yl)phenyl)((3aR, 7aR)-1-(4,6-dimethylpyrimidin-2-yl)hyexahydro-1H-pyrrolo[2,3-c]pyridin-6(2H)-yl)methanone] | 5.00 | 6.79 |
| N#Cc1ccnc(N2CC[C@@H]3CCN(C(=O)c4ccccc4-n4nccn4)C[C@@H]32)n1 [Example A3, 2-((3aR, 7aR)-6-(2-(2H-1,2,3-triazol-2-yl)benzoyl)octahydro-1H-pyrrolo[2,3-c]pyridin-1-yl)pyrimidine-4-carbonitrile] | 5.00 | 6.03 |
| Cc1cc(C#N)nc(N2CC[C@@H]3CCN(C(=O)c4ccccc4-n4nccn4)C[C@@H]32)n1 [Example A4, 2-((3aR, 7aR)-6-(2-(2H-1,2,3-triazol-2-yl)benzoyl)octahydro-1H-pyrrolo[2,3-c]pyridin-1-yl)-6-methylpyrimidine-4-carbonitrile] | 5.00 | 5.00 |
| COc1cc(OC)nc(N2CC[C@@H]3CCN(C(=O)c4ccccc4-n4nccn4)C[C@@H]32)n1 [Example A5, (2-(2H-1,2,3-triazol-2-yl)phenyl)((3aR, 7aR)-1-(4,6-dimethoxypyrimidin-2-yl)hexahydro-1H-pyrrolo[2,3-c]pyridin-6(2H)-yl)methanone] | 5.00 | 5.68 |
| O=C(c1ccccc1-n1nccn1)N1CC[C@H]2CCN(c3ncccn3)[C@H]2C1 [Example A6] | 5.00 | 5.22 |
| COC(=O)c1ccnc(N2CC[C@@H]3CCN(C(=O)c4ccccc4-n4nccn4)C[C@@H]32)c1 [Example A8] | ≤ 5.00 | ≤ 5.00 |
| COc1cc(N2CC[C@@H]3CCN(C(=O)c4ccccc4-n4nccn4)C[C@@H]32)ncc1C#N [Example A9] | ≤ 5.00 | 5.58 |
| O=C(c1ccccc1-n1nccn1)N1CC[C@H]2CCN(c3ccc(-n4ccnc4)nn3)[C@H]2C1 [Example A10, (3aR, 7aR)-(1-(6-(1H-imidazol-1-yl)pyridazin-3-yl)hexahydro-1H-pyrrolo[2,3-c]pyridin-6(2H)-yl)(2-(2H-1,2,3-triazol-2-yl)phenyl)methanone] | 5.00 | 5.00 |
| Cc1ccc(C)n1-c1ccc(N2CC[C@@H]3CCN(C(=O)c4ccccc4-n4nccn4)C[C@@H]32)nn1 [Example A11, (2-(2H-1,2,3-triazol-2-yl)phenyl)((3aR, 7aR)-1-(6-(2,5-dimethyl-1H-pyrrol-1-yl)pyridazin-3-yl)hexahydro-1H-pyrrolo[2,3-c]pyridin-6(2H)-yl)methanone] | 5.00 | 5.00 |
| COC(=O)c1ccc(N2CC[C@@H]3CCN(C(=O)c4ccccc4-n4nccn4)C[C@@H]32)nn1 [Example A12, methyl 6-((3aR, 7aR)-6-(2-(2H-1,2,3-triazol-2-yl)benzoyl)octahydro-1H-pyrrolo[2,3-c]pyridin-1-yl)pyridazine-3-carboxylate] | ≤ 5.00 | ≤ 5.00 |
| O=C(c1ccccc1-n1nccn1)N1CC[C@H]2CCN(c3ncnc4scnc34)[C@H]2C1 [Example A13, (2-(2H-1,2,3-triazol-2-yl)phenyl)((3aR, 7aR)-1-(thiazolo[5,4-d]pyrimidin-7-yl)hexahydro-1H-pyrrolo[2,3-c]pyridin-6(2H)-yl)methanone] | ≤ 5.00 | ≤ 5.00 |
| N#Cc1cc(Cl)ncc1N1CC[C@@H]2CCN(C(=O)c3ccccc3-n3nccn3)C[C@@H]21 [Example A14, 5-((3aR, 7aR)-6-(2-(2H-1,2,3-triazol-2-yl)benzoyl)octahydro-1H-pyrrolo[2,3-c]pyridin-1-yl)-2-chloroisonicotinonitrile] | ≤ 5.00 | ≤ 5.00 |
| Cc1c(C#N)ccnc1N1CC[C@@H]2CCN(C(=O)c3ccccc3-n3nccn3)C[C@@H]21 [Example A15, 2-(cis-6-(2-(2H-1,2,3-triazol-2-yl)benzoyl)ocathydro-1H-pyrrolo[2,3-c]pyridin-1-yl)-3-methylisonicotinonitrile] | ≤ 5.00 | 7.07 |
| CN(C)c1ccnc(N2CC[C@@H]3CCN(C(=O)c4ccccc4-n4nccn4)C[C@@H]32)c1C#N [Example A17, 4-(dimethylamino)-2-[(3aR, 7aR)-6-{[2-(2H-1,2,3-triazol-2-yl)phenyl]carbonyl}octahydro-1H-pyrrolo[2,3-c]pyridin-1-yl]pyridine-3-carbonitrile] | ≤ 5.00 | 7.16 |
| CN(C)c1cc(Cl)nc(N2CC[C@@H]3CCN(C(=O)c4ccccc4-n4nccn4)C[C@@H]32)n1 [Example A18, 6-chloro-N,N-dimethyl-2-[(3aR, 7aR)-6-{[2-(2H-1,2,3-triazol-2-yl)phenyl]carbonyl}octahydro-1H-pyrrolo[2,3-c]pyridin-1-yl]pyrimidin-4-amine] | 5.49 | 6.89 |
